Measurements as given in US20130303490A1, “Inhibitors of HIV Infections and uses thereof” (Centre National De La Recherche Scientifique-CNRS, priority 2010, published 2013).
Entries after “also recorded” stand apart in the source; their conditions may differ. Where two headings read alike, the source gives them in different places.

Assays:
[1] = system: Ad8-luc virus in HOS CCR5 lacZ line; assay: Infection of HOS CCR5 lacZ cells (not expressing S1PR1) with Ad8-luc virus (luciferase activity); assay type: cell-based, HIV-1
[2] = system: Ad8-luc virus in peripheral blood mononuclear cells (PBMCs); assay: Infection of PBMCs with Ad8-luc virus (luciferase activity); assay type: cell-based, HIV-1
Experimental: The HOS-CD4 line (AIDS Reagent Program, Rockville, Md.) and the HEK-293T line (simian virus 40 T antigen-transformed human embryonic kidney 293T, Genethon) are cultured in DMEM medium supplemented with 10% of FCS (fetal calf serum), 10 mM of glutamax-1, 100 U/ml of penicillin and 100 μg/ml of streptomycin. The HEK-293T CD4+ CCR5+ line (gift from Martine Biard-Piechaczyk, Institute of Biology, Montpellier, France) was obtained by transfection of CD4 and CCR5 genes using the HEK-293T line. The human PBMCs in culture are isolated from blood of healthy donors by density centrifugation on lymphocyte separation medium (Eurobio) and cultured in RPMI medium supplemented like the DMEM at 37° C., 5% CO2.

[3] = system: HIV-1 strain JR-CSF (R5 strain); assay: Humanized SCID mice (hu-PBL-SCID) infected with HIV-1, viral load by qPCR; assay type: in vivo, mouse (SCID, grafted with human PBMCs); conditions: FTY720 0.3 mg per kg per day by gavage from D-1, viral load D6, 9, 12; p=0.023 (FIG. 6)
Experimental: SCID mice have the cb17/Icr-Prkdc^scid/Crl genotype. These immunodepressed mice are housed in an A3/L3 animal house in cages with a filter lid, in a ventilated cage rack. After one week of acclimatization, the animals are reconstituted by intraperitoneal injection of 30×10^6 PBMCs obtained by density centrifugation of the leukocytes of an uncertified cytapheresis annulus from a healthy volunteer donor. The reconstitution is evaluated on the 13th day by assaying the human immunoglobulins (Igs) present in the serum of the mice by means of an Elisa assay using the anti-human whole Ig-PO antibody (MP Biomedical, cat n° 55230). The mice whose total Ig concentration is greater than 100 μg/ml are kept for the experiment, and are infected 14 days after the reconstitution with the HIV-1 strain JR-CSF (R5 strain) at 1000 TCID50 in 100 μl. Daily gavage with 100 μl of FTY720 (Cayman, sold by Interchim ref. BM8045) dissolved at 60 μg/ml in distilled water is begun one day before the infection and continued for 12 days. The untreated mice are given the same volume of distilled water by gavage. […] The viremies are evaluated by quantification of the viral ARN in the plasma of the mice by qPCR with the AmpliPrep/COBAS TaqMan HIV-1 test (Roche Diagnostics, ref. 05212294190). […]

[4] = system: Ad8-luc virion (nonreplicative R5-pseudotyped HIV-1) in HEK-293T CD4+ CCR5+ cells; assay: Infection of S1PR1-transfected HEK-293T CD4+ CCR5+ cells with Ad8-luc virion (luciferase activity); assay type: cell-based
Experimental: In order to test the influence of the expression of S1PR1 on infection with HIV-1, 50 000 HEK-293T CD4+ CCR5+ cells were transiently transfected by lipofection, by incubating them for 24 hours with a mixture of 50 ng of CMV-S1PR1 plasmid, 20 ng of the pRL-TK-Renilla Luciferase plasmid (Promega) and 0.5 μl of lipofectamine (Lipofectamine™ 2000, Invitrogen) in 150 μl of DMEM medium, 10% FCS, in a 96-well plate, incubated beforehand with a solution of D-polylysine for 30 min. […] 24 h after the transfection, the wells are washed with DMEM (BioWhittaker), and then the cells are infected with 40 ng of the Ad8-luc virion in 180 μl of culture medium. […] 24 h after the infection, the cells are washed once with culture medium, and put back in culture with 200 μl of DMEM, 10% FCS. 40 h to 48 h after the infection, the cells are washed once with PBS, and lysed with 50 μl of buffer, and then the Firefly and Renilla luciferase activities are measured sequentially in a luminometer using the Dual-Luciferase® Reporter Assay system (Promega, cat: E1910). The Renilla luciferase activity is used as a measure of the level of cell metabolism.

[5] = HOS CCR5 lacZ cells not expressing S1PR1, 33 μM preincubation for one hour (FIG. 3), p<0.01

Q: With `CCCCCCCCCCCCC/C=C/[C@@H](O)[C@@H](N)COP(=O)(O)O` [Sphingosine-1-phosphate, sphingosine-1-phosphate] as the molecule, how does the “decrease of the HIV infection” value [1, 5] read?
A: approximately 50%

Q: And the inhibition at 1 µM ([2]; Human immunodeficiency virus 1, PBMC, read-out: inhibition of the infection)?
A: ~60%

Q: With `CCCCCCCCc1ccc(CCC(N)(CO)CO)cc1.Cl` [FTY720, 2-amino-2-[2-(4-octylphenyl)ethyl]propane-1,3-diol] as the molecule, how does the “viremia / infection of the treated animals versus untreated group” value [3] read?
A: clear decrease in viremia; also recorded: significant decrease

Q: What about the “decrease of the HIV infection” value [1, 5] of the same molecule?
A: approximately 50%

Q: `FC(F)(F)c1cccc(-c2noc(-c3cc(-c4ccccc4)c(C(F)(F)F)s3)n2)c1` [SEW2871] was tested. Which “decrease of the HIV infection” value [1, 5] did it give?
A: No significant difference; also recorded: does not significantly modify the infection

Q: For `CCCCCCCCc1ccc(CC[C@](N)(CO)COP(=O)(O)O)cc1` [FTY720-P], which “reduction of infection compared with the empty plasmid control” value ([4]; S1PR1-expressing HEK-293T CD4+ CCR5+ cells, FTY720-P 80 ng/ml for 30 min before addition of the virus, unstimulated S1PR1 alone gives 60%) is on record?
A: 90%

Q: And the “decrease of the HIV infection” value [1]?
A: approximately 50%

Q: What about the “inhibition of the infection” value ([2]; PBMCs from a healthy donor, 1 μM preincubation, Ad8-luc for 72 h (FIG. 4)) of the same molecule?
A: approximately 60%

B1: MIP1-β: a CCR5 ligand known to inhibit HIV infection (R&D systems) (protein, UniProt P13236 24-92, looked up)
C-C motif chemokine 4: APMGSDPPTACCFSYTARKLPRNFVVDYYETSSLCSQPAVVFQTKRSKQVCADPSESWVQEYVYDLELN
Q: How did the “decrease in infection compared with that of FTY720-P” value ([4]; same conditions, anti-CCR5 antibody 10 μg/ml, MIP-1β 100 ng/ml, 30 min before infection) turn out when B1 was run?
A: of the same level
